Data reported in US20230054318A1, “PERSONALIZED TUMOR VACCINE AND USE THEREOF FOR CANCER IMMUNOTHERAPY” (priority 2019, published 2023).

Test: Human Equivalent Dose (HED) calculation based on body surface area
Conditions: for Animal NOAEL: mouse (~20 g)
Excerpt: Provided herein are methods for calculating HED of the MBTA components based on body surface area.
See details from: Nair A B, Jacob S. A simple practice guide for dose conversion between animals and human. J Basic Clin Pharma 2016; 7:27-31
A formula to calculate HED is shown as follows:
HED(mg/kg)=Animal dose(mg/kg)Animal Km/Human Km

Compound `CCOCc1nc2c(N)nc3ccccc3c2n1CC(C)(C)O` [R-848, Resiquimod, reference compound] has an NOAEL (mouse) of 1.2 mg/kg.
For “Lipoteichoic acid [LTA, reference compound]”, the “Animal NOAEL” value was 1.2 mg/kg.
With Mannan the “HED/Safety Factor (10)” value was 0.3851 mg/kg, the “Maximum Recommended Starting Dose (MRSD, assuming 60 kg adult)” value was 23.11 mg/day and the HED (Mouse Km=3, Human Km=37) was 3.851 mg/kg. For the same compound, the “Animal NOAEL” value was 47.5 mg/kg.
